Laboratory results from patent US6825348B2, “Antiviral compounds” (Academia Sinica, priority 2002, dated 2004).
≈ marks a conversion by molar mass, not a printed value. Read-outs that look alike come from different tables or passages of the source.

What was measured:
HSV-1 (KOS) = assay: Anti-HSV-1 activity in vivo, HSV-1-induced mortality in NMRI mice; details: 6 days; for mean day of animal death / mean day of symptom initiation: terminated day 21; for responders at 100 mg/kg / responders at 150 mg/kg / responders at 250 mg/kg: Human alphaherpesvirus 1, ip, 504 h; for protection against HSV-induced mortality: 150 mg/kg dose level i.p.
[1] = tested on: human cytomegalovirus (AD-169); assay: Inhibition of HCMV cytopathogenicity in Vero cell culture; assay type: cell-based; details: Human betaherpesvirus 5, AD169; Vero cell culture; 50% inhibition of cytopathogenicity; for 1:1 mixtures IC50 refers to known antiviral drugs; read-out: IC50 HCMV (AD-169)
HSV thymidine kinase = HSV thymidine kinase (Human herpesvirus 1, UniProt P0DTH5); assay: Phosphorylation of nucleosides by HSV thymidine kinase; assay type: biochemical
HSV thymidine kinase, sequence (P0DTH5 whole entry, looked up): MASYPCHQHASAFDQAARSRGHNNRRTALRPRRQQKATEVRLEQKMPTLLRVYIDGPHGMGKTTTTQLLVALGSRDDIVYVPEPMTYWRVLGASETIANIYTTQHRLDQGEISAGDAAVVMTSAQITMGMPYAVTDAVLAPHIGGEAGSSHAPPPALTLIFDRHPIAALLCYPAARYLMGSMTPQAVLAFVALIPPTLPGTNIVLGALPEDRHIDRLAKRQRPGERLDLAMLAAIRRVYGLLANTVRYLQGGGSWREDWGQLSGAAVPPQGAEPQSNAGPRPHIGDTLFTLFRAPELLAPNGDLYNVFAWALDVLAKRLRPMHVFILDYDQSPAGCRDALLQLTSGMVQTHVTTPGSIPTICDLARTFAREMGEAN

[2] = Lipophilicity, 1-octanol/water partition coefficient; details: 1-octanol/water (0.10 M phosphate buffer)
[3] = tested on: thymidine kinase-deficient (TK−) varicella-zoster virus (YS/R); assay: microbe, parasite or virus in culture; assay type: cell-based; details: Human alphaherpesvirus 3, Vero, read-out: IC50 TK−VZV (YS/R)
[4] = tested on: herpes simplex type 1 virus (HSV-1) (KOS); assay: Inhibition of HSV-1 cytopathogenicity in Vero cell culture; assay type: cell-based; details: Human alphaherpesvirus 1, Vero, read-out: IC50 HSV-1 (KOS)
HeLa cells = details: human
[5] = tested on: Vero cell thymidine kinase; assay: Phosphorylation of nucleosides by Vero cell thymidine kinase; assay type: biochemical; details: for Km: apparent Km, 37° C., pH 7.5; for rel. Vmax, Vero cell thymidine kinase: relative to thymidine = 1.0 × 10^2
[6] = Solubility in water (phosphate buffer, UV absorbance); details: phosphate buffer, pH 6.8, aqueous buffer, thermodynamic from solid
[7] = tested on: thymidine kinase-positive (TK+) varicella-zoster virus (YS); assay: Inhibition of TK+ VZV cytopathogenicity in Vero cell culture; assay type: cell-based
Vero cells = details: African green monkey
HIV-1 (IIIB) = assay: microbe, parasite or virus in culture; assay type: cell-based; details: Human immunodeficiency virus 1, IIIB; MT4 cells, average of duplicates; read-out: IC50 HIV-1 (IIIB)
CEM cells = assay: Toxicity toward CEM cells
MT4 cells = assay: Toxicity toward MT4 cells
[8] = tested on: moloney murine sarcoma virus (MSV); assay: Inhibition of MSV cytopathogenicity in CEM cells (cell-protection assay); assay type: cell-based; details: Moloney murine sarcoma virus, CCRF-CEM; CEM cells, average of duplicates; read-out: IC50 MSV
HIV-2 (LAV-2) = assay: Inhibition of HIV-2 cytopathogenicity in MT4 cells; assay type: cell-based, human immunodeficiency virus; details: Human immunodeficiency virus 2; MT4 cells, average of duplicates; read-out: IC50 HIV-2 (LAV-2)
[9] = target: T1, calf mucosal adenosine deaminase (ADA, EC 3.5.4.4) (Bos taurus, UniProt P56658); assay: Substrate activity and competitive inhibition of adenosine deaminase; assay type: biochemical; details: for type of ADA inhibition in words: ara-A used as substrate; for rel. Vmax: compound as ADA substrate, relative to ara A 3 = 1.0; for Ki: inhibition of ADA with ara-A 3 as substrate
T1 sequence (P56658 1-363): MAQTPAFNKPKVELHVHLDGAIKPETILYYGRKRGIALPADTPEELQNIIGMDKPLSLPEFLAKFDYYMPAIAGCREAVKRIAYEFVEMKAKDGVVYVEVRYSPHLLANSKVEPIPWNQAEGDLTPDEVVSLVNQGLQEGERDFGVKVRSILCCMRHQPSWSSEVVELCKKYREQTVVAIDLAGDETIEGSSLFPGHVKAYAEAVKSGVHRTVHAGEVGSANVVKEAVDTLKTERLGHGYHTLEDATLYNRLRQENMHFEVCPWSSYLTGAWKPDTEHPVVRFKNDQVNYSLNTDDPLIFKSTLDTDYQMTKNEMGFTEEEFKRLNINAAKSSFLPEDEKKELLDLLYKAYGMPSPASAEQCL

[10] = LD50 and toxicity in mice, intraperitoneal
[11] = 100 mg/kg/day i.p., read-out: percentage of HSV-1-infected mice alive at day 21 postinfection
[12] = 100 mg/kg/day i.p., read-out: percentage of HSV-1-infected mice without symptoms at day 21 postinfection
[13] = 150 mg/kg/day i.p., read-out: percentage of HSV-1-infected mice alive at day 21 postinfection
[14] = 150 mg/kg/day i.p., read-out: percentage of HSV-1-infected mice without symptoms at day 21 postinfection
[15] = 250 mg/kg/day i.p., read-out: percentage of HSV-1-infected mice alive at day 21 postinfection
[16] = 250 mg/kg/day i.p., read-out: percentage of HSV-1-infected mice without symptoms at day 21 postinfection
[17] = mixture with acyclovir 2 (w/w=1:1)

Nc1nc2ncn(COCCO)c2c(=O)[nH]1 [Compound 9, 7-[(2-Hydroxyethoxy)methyl]guanine]
mean day of animal death (HSV-1 (KOS); 100 mg/kg/day i.p.): 14.1 ± 0.8 days
mean day of symptom initiation (HSV-1 (KOS); 100 mg/kg/day i.p.): 10.9 ± 0.6 days
mean day of animal death (HSV-1 (KOS); 150 mg/kg/day i.p.): 16.0 ± 1.5 days
mean day of symptom initiation (HSV-1 (KOS); 150 mg/kg/day i.p.): 13.0 ± 1.1 days
mean day of animal death (HSV-1 (KOS); 250 mg/kg/day i.p.): 18.5 ± 1.0 days
mean day of symptom initiation (HSV-1 (KOS); 250 mg/kg/day i.p.): 15.1 ± 1.2 days
responders at 100 mg/kg (HSV-1 (KOS); [11]): 66%
responders at 100 mg/kg (HSV-1 (KOS); [12]): 48%
responders at 150 mg/kg (HSV-1 (KOS); [13]): 78%
responders at 150 mg/kg (HSV-1 (KOS); [14]): 57%
responders at 250 mg/kg (HSV-1 (KOS); [15]): 90%
responders at 250 mg/kg (HSV-1 (KOS); [16]): 67%
IC50 [1]: 16 µg/mL (≈ 71 µM)
rel. Vmax, HSV thymidine kinase (HSV thymidine kinase): 28.0
logP at […] [2]: -0.6
IC50 [3]: 38 µg/mL (≈ 169 µM)
IC50 [4]: 1.1 µg/mL (≈ 4.88 µM)
HeLa cell, concentration causing microscopically visible change or disruption in about 50% of the cell sheet (HeLa cells): 114 µg/mL
Km [5]: 0.0183 mM
rel. Vmax, Vero cell thymidine kinase [5]: 12.0
solubility at 20 h [6]: 320 µg/mL (≈ 1420 µM)
IC50 TK+VZV (YS) [7]: 13 µg/mL (≈ 57.7 µM)
Vero cell, concentration causing microscopically visible change or disruption in about 50% of the cell sheet (Vero cells): 99 µg/mL

Nc1nc2c(ncn2CCOCP(=O)(O)O)c(=O)[nH]1 [PMEG 27, 9-[2-(phosphonomethoxy)ethyl]guanine, reference compound]
IC50 [1]: 0.35 µg/mL (≈ 1.21 µM)
IC50 (HIV-1 (IIIB)): 16 µg/mL (≈ 55.3 µM)
logP at […] [2]: 0.14
IC50 [3]: 0.06 µg/mL (≈ 0.207 µM)
CEM cell, concentration reducing the number of viable uninfected cells by 50% (CEM cells): 12 µg/mL
IC50 [4]: 4.6 µg/mL (≈ 15.9 µM)
HeLa cell, concentration causing microscopically visible change or disruption in about 50% of the cell sheet (HeLa cells): 9.1 µg/mL
MT4 cell, concentration reducing the number of viable uninfected cells by 50% (MT4 cells): 16 µg/mL
IC50 [8]: 0.19 µg/mL (≈ 0.657 µM)
solubility at 20 h [6]: 360 µg/mL (≈ 1240 µM)
IC50 (HIV-2 (LAV-2)): 18 µg/mL (≈ 62.2 µM)
IC50 TK+VZV (YS) [7]: 0.040 µg/mL (≈ 0.138 µM)
Vero cell, concentration causing microscopically visible change or disruption in about 50% of the cell sheet (Vero cells): 7.0 µg/mL

Cc1cn([C@H]2C[C@H](O)[C@@H](CO)O2)c(=O)[nH]c1=O [thymidine]
Km [5]: 0.001 mM
rel. Vmax, Vero cell thymidine kinase [5]: 1.0 × 10^2

Nc1ncnc2c1ncn2COCCO [Compound 1, 9-[(2-Hydroxyethoxy)methyl]adenine, reference compound]
IC50 [1]: 4.8 µg/mL (≈ 22.9 µM)
ADA substrate / inhibitor property in words [9]: functioned as ADA substrates
type of ADA inhibition in words [9]: competitive inhibition
rel. Vmax [9]: 1.48 × 10^−2
Ki [9]: 141 µM
rel. Vmax, HSV thymidine kinase (HSV thymidine kinase): <3.0
effect on the rate of phosphorylation of acyclovir 2 in words (HSV thymidine kinase; [17]): did not induce any increase
logP at […] [2]: 0.98
IC50 [3]: 9 µg/mL (≈ 43 µM)
IC50 [4]: 4.5 µg/mL (≈ 21.5 µM)
HeLa cell, concentration causing microscopically visible change or disruption in about 50% of the cell sheet (HeLa cells): 196 µg/mL
Km [5]: > 30 mM
rel. Vmax, Vero cell thymidine kinase [5]: <3.0
solubility at 20 h [6]: 2560 µg/mL (≈ 12200 µM)
IC50 TK+VZV (YS) [7]: 7.0 µg/mL (≈ 33.5 µM)
Vero cell, concentration causing microscopically visible change or disruption in about 50% of the cell sheet (Vero cells): 209 µg/mL

Nc1ncnc2ncn(COCCO)c12 [Compound 14, 7-[(2-Hydroxyethoxy)methyl]adenine]
mean day of animal death (HSV-1 (KOS); 100 mg/kg/day i.p.): 19.8 ± 1.7 days
mean day of symptom initiation (HSV-1 (KOS); 100 mg/kg/day i.p.): 17.5 ± 2.1 days
protection against HSV-induced mortality (HSV-1 (KOS)): full protection
mean day of animal death (HSV-1 (KOS); 150 mg/kg/day i.p.): >21 days
mean day of symptom initiation (HSV-1 (KOS); 150 mg/kg/day i.p.): 19.9 ± 1.3 days
mean day of animal death (HSV-1 (KOS); 250 mg/kg/day i.p.): >21 days
mean day of symptom initiation (HSV-1 (KOS); 250 mg/kg/day i.p.): >21 days
responders at 100 mg/kg (HSV-1 (KOS); [11]): 95%
responders at 100 mg/kg (HSV-1 (KOS); [12]): 80%
responders at 150 mg/kg (HSV-1 (KOS); [13]): 100%
responders at 150 mg/kg (HSV-1 (KOS); [14]): 88%
responders at 250 mg/kg (HSV-1 (KOS); [15]): 100%
responders at 250 mg/kg (HSV-1 (KOS); [16]): 100%
IC50 [1]: 1 µg/mL (≈ 4.78 µM)
ADA substrate / inhibitor property in words [9]: functioned as ADA substrates
type of ADA inhibition in words [9]: competitive inhibition
rel. Vmax [9]: 1.50 × 10^−6
Ki [9]: 8.3 µM
rel. Vmax, HSV thymidine kinase (HSV thymidine kinase): <3.0
increase on the rate of phosphorylation of acyclovir 2 by HSV thymidine kinase (HSV thymidine kinase; [17]): 2 fold
logP at […] [2]: 1.24
IC50 [3]: 0.97 µg/mL (≈ 4.64 µM)
LD50 ([10]; NMRI, mouse, in vivo, ip): 950 mg/kg
level up to which no toxicity was shown ([10]; mice, intraperitoneal): 400 mg/kg
IC50 [4]: 0.58 µg/mL (≈ 2.77 µM)
HeLa cell, concentration causing microscopically visible change or disruption in about 50% of the cell sheet (HeLa cells): 472 µg/mL
Km [5]: > 30 mM
rel. Vmax, Vero cell thymidine kinase [5]: <3.0
solubility at 20 h [6]: 4710 µg/mL (≈ 22500 µM)
IC50 TK+VZV (YS) [7]: 1.1 µg/mL (≈ 5.26 µM)
Vero cell, concentration causing microscopically visible change or disruption in about 50% of the cell sheet (Vero cells): 496 µg/mL

Nc1nc2c(ncn2COCCO)c(=O)[nH]1 [acyclovir 2, 9-[(2-hydroxyethoxy)methyl]guanine, reference compound]
mean day of animal death (HSV-1 (KOS); 100 mg/kg/day i.p.): 18.9 ± 2.1 days
mean day of symptom initiation (HSV-1 (KOS); 100 mg/kg/day i.p.): 15.6 ± 1.6 days
protection against HSV-induced mortality (HSV-1 (KOS)): full protection
mean day of animal death (HSV-1 (KOS); 150 mg/kg/day i.p.): >21 days
mean day of symptom initiation (HSV-1 (KOS); 150 mg/kg/day i.p.): 19.1 ± 1.3 days
mean day of animal death (HSV-1 (KOS); 250 mg/kg/day i.p.): >21 days
mean day of symptom initiation (HSV-1 (KOS); 250 mg/kg/day i.p.): >21 days
responders at 100 mg/kg (HSV-1 (KOS); [11]): 80%
responders at 100 mg/kg (HSV-1 (KOS); [12]): 65%
responders at 150 mg/kg (HSV-1 (KOS); [13]): 100%
responders at 150 mg/kg (HSV-1 (KOS); [14]): 86%
responders at 250 mg/kg (HSV-1 (KOS); [15]): 100%
responders at 250 mg/kg (HSV-1 (KOS); [16]): 100%
IC50 [1]: 32 µg/mL (≈ 142 µM)
rel. Vmax, HSV thymidine kinase (HSV thymidine kinase): 39.2
logP at […] [2]: -0.48
IC50 [4]: 0.46 µg/mL (≈ 2.04 µM)
HeLa cell, concentration causing microscopically visible change or disruption in about 50% of the cell sheet (HeLa cells): 259 µg/mL
Km [5]: 22 mM
rel. Vmax, Vero cell thymidine kinase [5]: <3.0
solubility at 20 h [6]: 400 µg/mL (≈ 1780 µM)
Vero cell, concentration causing microscopically visible change or disruption in about 50% of the cell sheet (Vero cells): 269 µg/mL
